Reference: BigSolDB 2.1

Sc1nc2ccccc2[nH]1
solubility (mole fraction)
Details	283.15 K	288.15 K	293.15 K	298.15 K	303.15 K	308.15 K	313.15 K	318.15 K	323.15 K
in 2-butoxyethanol	0.0459	0.0463	0.0469	0.0475	0.0484	0.0491	0.0498	0.0507	0.0515
in 2-ethoxyethanol	0.0577	0.0583	0.059	0.0599	0.0607	0.0615	0.0623	0.0634	0.0646
in 2-methoxyethanol	0.0682	0.0691	0.0703	0.0717	0.0729	0.0742	0.0758	0.0775	0.0793
in 2-propoxyethanol	0.0497	0.0502	0.0506	0.0511	0.0519	0.0526	0.0535	0.0545	0.0555
in MIBK	0.00859	0.00884	0.00913	0.00945	0.00983	0.0102	0.0106	0.011	0.0114
in ethyl formate	0.00169	0.0018	0.00197	0.00211	–	–	–	–	–
